{"source": "patent US20250064789A1", "about": "“KETOAMIDE DERIVATIVES AND PHARMACEUTICAL USES THEREOF” (priority 2022, published 2025)", "key": {"human thrombin": {"biological_target": "human thrombin (Homo sapiens (Human), UniProt P00734)", "experiment": "Human protease biochemical activity assay: Thrombin activity testing kit", "experimental": "(§1) The biochemical activity of compounds against human proteases was determined using Cathepsin K inhibitor screening kit (K150-100), Cathepsin B inhibitor screening kit (K147-100), Thrombin activity testing kit (K373-100), Caspase-2 inhibitor screening kit (K152-100), and Cathepsin D inhibitor screening kit (K148-100) according to the instructions of the kits (Biovision, USA). All experiments were carried out in triplicate. All experimental data were analyzed using GraphPad Prism software."}, "[1]": {"system": "SARS-CoV-2 Omicron (B.1.1.529) BA.2", "experiment": "Antiviral activity by plaque method in Vero E6-TMPRSS2 cells: SARS-CoV-2 Omicron BA.2", "format": "cell-based"}, "[2]": {"system": "SARS-CoV-2 Omicron (B.1.1.529) BA.5", "experiment": "Antiviral activity by plaque method in Vero E6-TMPRSS2 cells: SARS-CoV-2 Omicron BA.5", "format": "cell-based"}, "human caspase 2": {"biological_target": "human caspase 2 (Homo sapiens (Human), UniProt P42575)", "sequence (P42575 170-325)": "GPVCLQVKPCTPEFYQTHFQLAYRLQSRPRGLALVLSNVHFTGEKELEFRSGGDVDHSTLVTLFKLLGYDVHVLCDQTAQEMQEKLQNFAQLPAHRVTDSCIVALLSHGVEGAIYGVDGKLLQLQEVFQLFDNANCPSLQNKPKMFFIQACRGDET", "sequence (P42575 348-452)": "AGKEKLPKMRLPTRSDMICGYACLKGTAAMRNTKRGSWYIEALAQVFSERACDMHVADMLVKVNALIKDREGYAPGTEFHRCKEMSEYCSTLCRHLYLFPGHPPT", "experiment": "Human protease biochemical activity assay: Caspase-2 inhibitor screening kit", "experimental": "as §1"}, "[3]": {"experiment": "Metabolic stability using human liver microsomes", "format": "in vitro ADME", "settings": "pH 7.4, NADPH, 37° C., read-out: Human liver microsomes T1/2"}, "[4]": {"system": "SARS-CoV-2 Omicron (B.1.1.529) BA.2", "parameters": "species or system K18-hACE2 transgenic mice", "settings": "mouse, in vivo"}, "in vivo [5]": {"experiment": "in vivo", "format": "in vivo, ICR mice", "settings": "for MRT inf: read-out: MRTINF—obs"}, "[6]": {"biological_target": "hERG potassium ion channels (Homo sapiens (Human), UniProt Q12809)", "sequence (Q12809 whole entry, looked up)": "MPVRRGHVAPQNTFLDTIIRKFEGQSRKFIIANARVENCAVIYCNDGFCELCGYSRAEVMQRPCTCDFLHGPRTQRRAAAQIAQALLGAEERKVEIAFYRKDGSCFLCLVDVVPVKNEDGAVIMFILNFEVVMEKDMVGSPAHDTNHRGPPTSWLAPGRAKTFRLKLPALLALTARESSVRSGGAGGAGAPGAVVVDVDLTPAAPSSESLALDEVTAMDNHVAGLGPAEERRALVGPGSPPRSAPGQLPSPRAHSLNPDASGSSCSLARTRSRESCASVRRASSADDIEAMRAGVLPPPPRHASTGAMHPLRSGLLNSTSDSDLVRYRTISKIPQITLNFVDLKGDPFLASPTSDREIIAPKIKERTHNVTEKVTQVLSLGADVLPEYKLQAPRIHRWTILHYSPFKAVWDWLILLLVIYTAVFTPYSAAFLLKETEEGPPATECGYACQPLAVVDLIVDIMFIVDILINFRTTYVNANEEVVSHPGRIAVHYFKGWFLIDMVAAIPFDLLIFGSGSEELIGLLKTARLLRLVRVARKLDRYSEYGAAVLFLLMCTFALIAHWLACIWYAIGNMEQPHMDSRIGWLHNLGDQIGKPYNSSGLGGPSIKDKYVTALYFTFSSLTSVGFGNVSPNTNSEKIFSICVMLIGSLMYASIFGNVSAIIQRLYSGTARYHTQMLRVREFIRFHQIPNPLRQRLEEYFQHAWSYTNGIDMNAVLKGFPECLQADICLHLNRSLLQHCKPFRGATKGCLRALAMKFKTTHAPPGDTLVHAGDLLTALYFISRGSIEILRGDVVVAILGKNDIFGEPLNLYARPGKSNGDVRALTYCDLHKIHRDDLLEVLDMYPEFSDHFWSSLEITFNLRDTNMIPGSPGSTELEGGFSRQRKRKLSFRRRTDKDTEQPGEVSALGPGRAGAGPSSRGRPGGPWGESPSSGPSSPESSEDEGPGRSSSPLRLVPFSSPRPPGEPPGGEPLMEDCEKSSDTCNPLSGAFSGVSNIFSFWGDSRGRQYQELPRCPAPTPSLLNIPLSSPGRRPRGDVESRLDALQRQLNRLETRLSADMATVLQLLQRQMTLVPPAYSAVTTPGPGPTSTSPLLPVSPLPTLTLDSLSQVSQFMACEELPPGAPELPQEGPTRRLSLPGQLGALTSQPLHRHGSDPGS", "experiment": "hERG potassium current, whole cell patch clamp in HEK-293-hERG cells", "settings": "30 μM"}, "human cathepsin K": {"biological_target": "human cathepsin K (Homo sapiens (Human), UniProt P43235)", "sequence (P43235 115-329)": "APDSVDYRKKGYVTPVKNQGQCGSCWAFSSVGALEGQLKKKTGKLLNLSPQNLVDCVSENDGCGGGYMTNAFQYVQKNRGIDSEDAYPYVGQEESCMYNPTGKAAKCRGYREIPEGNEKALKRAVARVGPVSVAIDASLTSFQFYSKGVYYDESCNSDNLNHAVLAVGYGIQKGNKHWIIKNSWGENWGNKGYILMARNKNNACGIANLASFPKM", "experiment": "Human protease biochemical activity assay: Cathepsin K inhibitor screening kit", "experimental": "as §1"}, "in vivo [7]": {"experiment": "in vivo", "format": "in vivo, beagle dogs", "settings": "for MRT inf: read-out: MRTINF—obs", "experimental": "Male ICR mice (6-8 weeks old, weighing 16-25 g), male beagle dogs (1-2 years old, weighing 9-12 kg), or male cynomolgus monkeys (6-7 years old, weighing 6-8 kg) were randomly divided into groups, with three animals for each group, and a series of test compounds were administered orally (p.o.) or intravenously (i.v.) according to the protocol in following Table 10.\nThe solution for gavage and intravenous administration was prepared with DMSO/HS15/PEG400/NaCl (5/3/40/52, […]). The administration time was recorded, and for each sample, approximately 0.20 mL of blood was collected by jugular vein blood collection or other appropriate methods at the pre-determined time points. The blood sample was anticoagulated with heparin sodium, and after collection, the blood was placed on ice. The sample was centrifuged to separate the plasma within 1 h (centrifugation conditions: 6800 g, 6 min, 2-8° C.). Plasma samples were stored in a −80° C. freezer before analysis. The grouping and blood collection time points are shown in Table 4, with 3 animals at each time point."}, "MERS-CoV": {"system": "MERS-CoV", "format": "cell-based"}, "SARS-CoV-1": {"system": "SARS-CoV-1", "format": "cell-based"}, "in vivo [8]": {"experiment": "in vivo", "format": "in vivo, cynomolgus monkeys", "settings": "for MRT inf: read-out: MRTINF—obs"}, "in vivo [9]": {"experiment": "in vivo", "settings": "male, Sprague-Dawley, rat"}, "human cathepsin B": {"biological_target": "human cathepsin B (Homo sapiens (Human), UniProt P07858)", "experiment": "Human protease biochemical activity assay: Cathepsin B inhibitor screening kit", "experimental": "as §1"}, "human cathepsin D": {"biological_target": "human cathepsin D (Homo sapiens (Human), UniProt P07339)", "sequence (P07339 65-412)": "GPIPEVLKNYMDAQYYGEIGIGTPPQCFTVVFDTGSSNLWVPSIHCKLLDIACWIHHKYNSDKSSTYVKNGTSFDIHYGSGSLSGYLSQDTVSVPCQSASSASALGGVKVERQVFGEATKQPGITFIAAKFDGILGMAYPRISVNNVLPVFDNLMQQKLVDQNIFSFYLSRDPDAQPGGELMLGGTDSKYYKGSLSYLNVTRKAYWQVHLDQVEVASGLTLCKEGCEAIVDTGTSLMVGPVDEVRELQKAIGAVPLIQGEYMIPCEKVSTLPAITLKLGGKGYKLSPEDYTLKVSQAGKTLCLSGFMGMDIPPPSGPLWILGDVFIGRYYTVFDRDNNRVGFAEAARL", "experiment": "Human protease biochemical activity assay: Cathepsin D inhibitor screening kit", "experimental": "as §1"}, "[10]": {"experiment": "Preliminary evaluation of in vivo safety (acute and general toxicity test)", "settings": "p.o.; 1000 mg/kg single-dose; 800, 600, 400 mg/kg twice a day for 14 consecutive days"}, "[11]": {"settings": "male, mouse, in vivo, iv, ICR mice, i.v. 1 mg/kg"}, "[12]": {"settings": "male, dog, in vivo, po, beagle dogs, p.o. 10 mg/kg"}, "[13]": {"settings": "male, cynomolgus monkey, in vivo, iv, cynomolgus monkeys, i.v. 1 mg/kg"}}, "note": "Read-outs that look alike come from different tables or passages of the source.", "data": [{"smiles": "COC[C@@H](NC(=O)C1CCCC(F)(F)C1)C(=O)N[C@H](Cc1ccccc1)C(=O)C(=O)NCc1nccs1", "note": "(stereo partly drawn) [Compound 398, N—((R)-1-(((R)-3,4-dioxo-1-phenyl-4-((thiazole-2-ylmethyl)amino)butan-2-yl)amino)-3-methoxy-1-oxopropan-2-yl)-3,3-difluorocyclohexane-1-formamide]", "values": [{"measurement": "IC50", "setting": "human thrombin", "value": "> 100", "unit": "µM"}, {"measurement": "anti-viral activity, times higher than Nirmatrelvir (PF-07321332)", "setting": "[1]", "value": 2.82, "unit": "times"}, {"measurement": "anti-viral activity, times higher than Nirmatrelvir (PF-07321332)", "setting": "[2]", "value": 4.00, "unit": "times"}, {"measurement": "IC50", "setting": "human caspase 2", "value": "> 100", "unit": "µM"}, {"measurement": "half-life at 1 µM", "setting": "[3]", "value": 35.3, "unit": "min"}, {"measurement": "infectious viral load in the lungs by plaque assay (in words)", "setting": "[4]", "value": "effectively inhibited the production of infectious viral particles in the lungs"}, {"measurement": "inhibition of viral subgenome mRNA (sgRNA) in the lungs", "setting": "[4]", "value": 337, "unit": "times"}, {"measurement": "lung histopathology, H&E staining (in words)", "setting": "[4]", "value": "scattered inflammatory cell infiltration was occasionally observed"}, {"measurement": "reduction of sgRNA copies in the lungs", "setting": "[4]", "value": 12, "unit": "times"}, {"measurement": "reduction of sgRNA copy in the lungs compared with mice treated with Nirmatrelvir", "setting": "[4]", "value": "four times"}, {"measurement": "reduction of vRNA copies in the lungs", "setting": "[4]", "value": 16, "unit": "times"}, {"measurement": "reduction of vRNA copy in the lungs compared with mice treated with Nirmatrelvir", "setting": "[4]", "value": "four times"}, {"measurement": "reduction of viral genomic RNA (vRNA) in the lungs", "setting": "[4]", "value": 179, "unit": "times"}, {"measurement": "pharmacokinetic properties in mice (in words)", "setting": "in vivo [5]; i.v. 1 mg/kg, p.o. 150 mg/kg", "value": "good pharmacokinetic properties"}, {"measurement": "Tmax", "setting": "in vivo [5]; [11]", "value": 4.8, "unit": "min"}, {"measurement": "MRT inf", "setting": "in vivo [5]; [11]", "value": "10.2 ± 1.8", "unit": "min"}, {"measurement": "MRT inf", "setting": "in vivo [5]; male, mouse, in vivo, po, ICR mice, p.o. 150 mg/kg", "value": "217 ± 70.8", "unit": "min"}, {"measurement": "The average inhibition rate on hERG current", "setting": "[6]", "value": 1.28, "unit": "%"}, {"measurement": "IC50", "setting": "human cathepsin K", "value": "> 100", "unit": "µM"}, {"measurement": "Vssobs", "setting": "in vivo [7]; beagle dogs, i.v. 1 mg/kg", "value": "1.41964 ± 0.16026", "unit": "L/kg"}, {"measurement": "pharmacokinetic properties in beagle dogs (in words)", "setting": "in vivo [7]; i.v. 1 mg/kg, p.o. 10 mg/kg", "value": "good pharmacokinetic properties"}, {"measurement": "MRT inf", "setting": "in vivo [7]; male, dog, in vivo, iv, beagle dogs, i.v. 1 mg/kg", "value": "28.2 ± 3", "unit": "min"}, {"measurement": "Tmax", "setting": "in vivo [7]; [12]", "value": 60, "unit": "min"}, {"measurement": "MRT inf", "setting": "in vivo [7]; [12]", "value": "128 ± 10.8", "unit": "min"}, {"measurement": "anti-viral activity, times higher than Nirmatrelvir (PF-07321332)", "setting": "MERS-CoV", "value": 1.79, "unit": "times"}, {"measurement": "anti-viral activity, times higher than Nirmatrelvir (PF-07321332)", "setting": "SARS-CoV-1", "value": 17.14, "unit": "times"}, {"measurement": "Vssobs", "setting": "in vivo [8]; cynomolgus monkeys, i.v. 1 mg/kg", "value": "2.0658 ± 0.37439", "unit": "L/kg"}, {"measurement": "pharmacokinetic properties in cynomolgus monkeys (in words)", "setting": "in vivo [8]; i.v. 1 mg/kg, p.o. 10 mg/kg", "value": "good pharmacokinetic properties"}, {"measurement": "Tmax", "setting": "in vivo [8]; [13]", "value": 4.8, "unit": "min"}, {"measurement": "clearance", "setting": "in vivo [8]; [13]", "value": "2000 ± 257", "unit": "mL/min/kg"}, {"measurement": "MRT inf", "setting": "in vivo [8]; [13]", "value": "54 ± 10.8", "unit": "min"}, {"measurement": "MRT inf", "setting": "in vivo [8]; male, cynomolgus monkey, in vivo, po, cynomolgus monkeys, p.o. 10 mg/kg", "value": "283 ± 53.4", "unit": "min"}, {"measurement": "MRT inf", "setting": "in vivo [9]; iv, 1 mg/kg", "value": "140 ± 13.2", "unit": "min"}, {"measurement": "Tmax", "setting": "in vivo [9]; iv, 1 mg/kg", "value": 4.8, "unit": "min"}, {"measurement": "MRT inf", "setting": "in vivo [9]; po, 10 mg/kg", "value": "396 ± 53.4", "unit": "min"}, {"measurement": "Tmax", "setting": "in vivo [9]; po, 10 mg/kg", "value": "240 ± 120", "unit": "min"}, {"measurement": "IC50", "setting": "human cathepsin B", "value": "> 100", "unit": "µM"}, {"measurement": "IC50", "setting": "human cathepsin D", "value": "> 100", "unit": "µM"}, {"measurement": "body weight and general condition during the administration period", "setting": "[10]", "value": "1. During the administration period, no abnormal body"}]}]}
